Reference: the NIST ThermoML archive (doi:10.1021/je201014c)

Assay: mn = molality of the nth substance listed, in mol/kg
Conditions: 100 kPa, Liquid, Direct current cell with electrodes

CCn1cc[n+](C)c1.F[B-](F)(F)F [1-ethyl-3-methylimidazolium tetrafluoroborate] + CN(C)C=O
Conditions	molar conductivity [S·m2/mol]
283.15 K, m1 = 0.0001021	0.007524
283.15 K, m1 = 0.0002894	0.00744
283.15 K, m1 = 0.0004617	0.007387
283.15 K, m1 = 0.000707	0.007326
283.15 K, m1 = 0.001158	0.007238
283.15 K, m1 = 0.001876	0.007128
283.15 K, m1 = 0.002909	0.007001
283.15 K, m1 = 0.00391	0.006899
283.15 K, m1 = 0.006046	0.006724
283.15 K, m1 = 0.008043	0.006596
283.15 K, m1 = 0.01002	0.006492
283.15 K, m1 = 0.01201	0.006403
283.15 K, m1 = 0.0149	0.006286
288.15 K, m1 = 9.159e-05	0.008075
288.15 K, m1 = 0.0002695	0.007983
288.15 K, m1 = 0.0005098	0.007901
288.15 K, m1 = 0.0006932	0.007851
288.15 K, m1 = 0.001168	0.007746
288.15 K, m1 = 0.001915	0.007619
288.15 K, m1 = 0.002887	0.007489
288.15 K, m1 = 0.003934	0.007374
288.15 K, m1 = 0.005914	0.007199
288.15 K, m1 = 0.007975	0.007057
288.15 K, m1 = 0.009937	0.006944
288.15 K, m1 = 0.01205	0.00684
288.15 K, m1 = 0.01487	0.006715
293.15 K, m1 = 0.0001225	0.008604
293.15 K, m1 = 0.0002931	0.008516
293.15 K, m1 = 0.0004907	0.008442
293.15 K, m1 = 0.0007255	0.008372
293.15 K, m1 = 0.001177	0.008263
293.15 K, m1 = 0.001892	0.00813
293.15 K, m1 = 0.002911	0.007981
293.15 K, m1 = 0.003932	0.00786
293.15 K, m1 = 0.005979	0.007668
293.15 K, m1 = 0.007979	0.00752
293.15 K, m1 = 0.009955	0.007398
293.15 K, m1 = 0.01193	0.007292
293.15 K, m1 = 0.0148	0.007155
298.15 K, m1 = 0.0001133	0.009167
298.15 K, m1 = 0.0002704	0.009077
298.15 K, m1 = 0.000473	0.008993
298.15 K, m1 = 0.0006719	0.008926
298.15 K, m1 = 0.001151	0.008798
298.15 K, m1 = 0.001932	0.008639
298.15 K, m1 = 0.00291	0.008486
298.15 K, m1 = 0.003882	0.008361
298.15 K, m1 = 0.005957	0.008152
298.15 K, m1 = 0.007912	0.007996
298.15 K, m1 = 0.009961	0.007859
298.15 K, m1 = 0.012	0.007742
298.15 K, m1 = 0.01485	0.007598
303.15 K, m1 = 0.0001433	0.009709
303.15 K, m1 = 0.0002976	0.009622
303.15 K, m1 = 0.000507	0.009532
303.15 K, m1 = 0.0007136	0.00946
303.15 K, m1 = 0.001172	0.00933
303.15 K, m1 = 0.001894	0.009172
303.15 K, m1 = 0.002913	0.008999
303.15 K, m1 = 0.003926	0.008861
303.15 K, m1 = 0.005879	0.008649
303.15 K, m1 = 0.007956	0.008471
303.15 K, m1 = 0.009924	0.00833
303.15 K, m1 = 0.01202	0.0082
303.15 K, m1 = 0.01489	0.00805
308.15 K, m1 = 0.0001026	0.01031
308.15 K, m1 = 0.0003641	0.010155
308.15 K, m1 = 0.0005016	0.010095
308.15 K, m1 = 0.0006664	0.010033
308.15 K, m1 = 0.001147	0.009884
308.15 K, m1 = 0.001947	0.009697
308.15 K, m1 = 0.002894	0.009525
308.15 K, m1 = 0.003883	0.009379
308.15 K, m1 = 0.00584	0.009149
308.15 K, m1 = 0.007991	0.008948
308.15 K, m1 = 0.00998	0.008792
308.15 K, m1 = 0.01192	0.008661
308.15 K, m1 = 0.01486	0.008494
313.15 K, m1 = 9.519e-05	0.010895
313.15 K, m1 = 0.0002775	0.010772
313.15 K, m1 = 0.000472	0.010677
313.15 K, m1 = 0.0006836	0.010592
313.15 K, m1 = 0.001159	0.010438
313.15 K, m1 = 0.001948	0.010242
313.15 K, m1 = 0.002909	0.010057
313.15 K, m1 = 0.003934	0.009897
313.15 K, m1 = 0.005955	0.009647
313.15 K, m1 = 0.007964	0.009449
313.15 K, m1 = 0.009905	0.009289
313.15 K, m1 = 0.01192	0.009147
313.15 K, m1 = 0.0152	0.008968
318.15 K, m1 = 0.0001002	0.011475
318.15 K, m1 = 0.0002722	0.011357
318.15 K, m1 = 0.0004294	0.011275
318.15 K, m1 = 0.0006853	0.011165
318.15 K, m1 = 0.001173	0.011
318.15 K, m1 = 0.001899	0.010808
318.15 K, m1 = 0.002947	0.010593
318.15 K, m1 = 0.003909	0.010433
318.15 K, m1 = 0.005941	0.010163
318.15 K, m1 = 0.007935	0.009952
318.15 K, m1 = 0.009999	0.00977
318.15 K, m1 = 0.012	0.009623
318.15 K, m1 = 0.01494	0.009458
